Assay results taken from patent US9266878B2, “Phosphatidylinositol 3-kinase inhibitors” (Gilead Calistoga LLC, priority 2012, dated 2016).

Columns and labels:
Assay in all cases: Enzymatic activity of PI3K isoforms, TR-FRET assay (PIP3 formation)
Format in all cases: biochemical
[1] = target: PI3Kα (Homo sapiens (Human), UniProt P42336)
Procedure, shortened: (§1)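 Heterodimeric recombinant class I PI3K; PIP3 product displaces labeled PIP3 from GRP-1 PH domain, lowering TR-FRET. Reaction 30 min at 25° C, stopped with 10 mM EDTA, 10 nM labeled-PIP3, 35 nM Eu-GRP-1. Read Ex 340 nm, Em 615/665 nm; IC50 in nM.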

[2] = target: PI3Kδ (Homo sapiens (Human), UniProt O00329); details: bound given in nM
Procedure, shortened: as §1

[3] = target: PI3Kβ (Homo sapiens (Human), UniProt P42338)
Sequence of PI3Kβ (P42338 whole entry, the tested form may be a part): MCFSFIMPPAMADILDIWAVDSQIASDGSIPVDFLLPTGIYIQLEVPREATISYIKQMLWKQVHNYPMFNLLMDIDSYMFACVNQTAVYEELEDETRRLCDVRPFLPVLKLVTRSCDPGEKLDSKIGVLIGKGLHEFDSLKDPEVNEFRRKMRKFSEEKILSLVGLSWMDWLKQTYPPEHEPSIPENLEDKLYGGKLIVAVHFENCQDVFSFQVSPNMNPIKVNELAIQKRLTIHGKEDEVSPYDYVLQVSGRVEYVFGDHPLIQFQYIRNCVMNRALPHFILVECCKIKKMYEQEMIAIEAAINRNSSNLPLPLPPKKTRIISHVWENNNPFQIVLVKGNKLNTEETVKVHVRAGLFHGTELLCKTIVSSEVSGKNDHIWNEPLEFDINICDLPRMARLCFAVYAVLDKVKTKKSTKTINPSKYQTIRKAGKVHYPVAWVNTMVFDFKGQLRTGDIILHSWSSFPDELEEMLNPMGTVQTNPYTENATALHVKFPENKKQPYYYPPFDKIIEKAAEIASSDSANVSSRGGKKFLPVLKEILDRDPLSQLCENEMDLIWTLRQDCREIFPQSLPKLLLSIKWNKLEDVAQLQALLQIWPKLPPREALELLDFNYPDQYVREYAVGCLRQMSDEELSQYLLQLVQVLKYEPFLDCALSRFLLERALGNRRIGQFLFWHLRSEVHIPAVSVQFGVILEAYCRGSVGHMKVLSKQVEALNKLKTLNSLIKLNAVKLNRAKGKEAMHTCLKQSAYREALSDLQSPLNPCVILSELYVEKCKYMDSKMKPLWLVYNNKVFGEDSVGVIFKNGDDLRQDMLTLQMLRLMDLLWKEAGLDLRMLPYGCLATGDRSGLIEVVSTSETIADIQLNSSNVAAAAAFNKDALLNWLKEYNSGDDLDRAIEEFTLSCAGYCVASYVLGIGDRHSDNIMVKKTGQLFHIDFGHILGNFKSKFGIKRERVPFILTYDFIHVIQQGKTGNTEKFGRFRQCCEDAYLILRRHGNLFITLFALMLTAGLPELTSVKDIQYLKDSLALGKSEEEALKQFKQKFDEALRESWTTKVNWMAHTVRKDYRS
Sequence of PI3Kβ (P27986 whole entry partner, the tested form may be a part): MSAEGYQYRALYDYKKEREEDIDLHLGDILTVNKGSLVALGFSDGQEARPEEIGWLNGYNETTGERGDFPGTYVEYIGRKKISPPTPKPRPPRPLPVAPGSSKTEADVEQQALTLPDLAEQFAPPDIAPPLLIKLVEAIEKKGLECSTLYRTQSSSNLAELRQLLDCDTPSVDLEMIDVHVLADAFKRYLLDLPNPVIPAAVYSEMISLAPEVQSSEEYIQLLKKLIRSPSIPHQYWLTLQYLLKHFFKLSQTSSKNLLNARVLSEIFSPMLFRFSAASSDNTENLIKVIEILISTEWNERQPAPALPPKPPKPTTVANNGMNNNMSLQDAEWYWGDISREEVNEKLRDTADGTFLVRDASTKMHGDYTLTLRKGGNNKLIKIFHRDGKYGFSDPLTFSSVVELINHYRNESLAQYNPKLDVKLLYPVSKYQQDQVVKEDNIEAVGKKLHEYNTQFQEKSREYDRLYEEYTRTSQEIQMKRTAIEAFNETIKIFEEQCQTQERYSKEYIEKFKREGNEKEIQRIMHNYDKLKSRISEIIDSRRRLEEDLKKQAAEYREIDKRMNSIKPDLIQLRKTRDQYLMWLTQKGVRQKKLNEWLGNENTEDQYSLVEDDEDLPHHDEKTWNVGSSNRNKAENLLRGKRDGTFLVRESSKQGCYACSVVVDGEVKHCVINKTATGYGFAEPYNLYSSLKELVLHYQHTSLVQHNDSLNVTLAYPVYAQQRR
Procedure, shortened: (§2)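 Recombinant heterodimeric class I PI3K enzymes were assayed by TR-FRET. PIP3 product displaces fluorescently labelled PIP3 from the GRP-1 PH domain, lowering the signal; IC50 values are given in nM.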

[4] = target: PI3Kγ (Homo sapiens (Human), UniProt P48736)
Sequence of PI3Kγ (P48736 whole entry): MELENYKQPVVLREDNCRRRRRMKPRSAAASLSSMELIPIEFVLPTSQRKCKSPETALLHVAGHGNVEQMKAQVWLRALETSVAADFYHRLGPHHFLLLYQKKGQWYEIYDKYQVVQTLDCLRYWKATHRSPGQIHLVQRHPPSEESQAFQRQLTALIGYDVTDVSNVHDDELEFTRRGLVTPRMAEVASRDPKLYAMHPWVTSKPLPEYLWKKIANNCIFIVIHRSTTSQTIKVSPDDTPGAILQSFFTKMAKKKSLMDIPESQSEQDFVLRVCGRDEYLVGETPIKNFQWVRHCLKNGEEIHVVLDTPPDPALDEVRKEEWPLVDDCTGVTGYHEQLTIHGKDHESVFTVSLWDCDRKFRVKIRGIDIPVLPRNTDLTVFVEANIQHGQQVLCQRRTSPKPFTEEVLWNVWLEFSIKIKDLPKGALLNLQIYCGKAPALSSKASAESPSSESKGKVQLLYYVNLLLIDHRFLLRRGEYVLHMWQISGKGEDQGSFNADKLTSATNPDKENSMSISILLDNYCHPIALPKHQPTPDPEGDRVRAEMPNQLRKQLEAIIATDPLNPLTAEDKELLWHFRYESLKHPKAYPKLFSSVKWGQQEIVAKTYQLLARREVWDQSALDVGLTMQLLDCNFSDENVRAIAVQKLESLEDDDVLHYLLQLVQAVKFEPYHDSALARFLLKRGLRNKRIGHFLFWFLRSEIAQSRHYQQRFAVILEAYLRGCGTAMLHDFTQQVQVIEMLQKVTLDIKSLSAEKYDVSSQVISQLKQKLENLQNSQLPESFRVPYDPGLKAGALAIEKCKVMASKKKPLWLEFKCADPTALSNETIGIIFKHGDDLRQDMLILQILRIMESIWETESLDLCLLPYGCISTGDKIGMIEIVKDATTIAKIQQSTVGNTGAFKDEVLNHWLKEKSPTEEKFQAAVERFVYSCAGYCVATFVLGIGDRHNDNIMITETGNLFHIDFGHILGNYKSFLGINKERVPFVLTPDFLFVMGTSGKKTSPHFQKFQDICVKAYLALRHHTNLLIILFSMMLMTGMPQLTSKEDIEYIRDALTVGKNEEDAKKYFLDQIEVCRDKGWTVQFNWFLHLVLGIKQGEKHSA
Sequence of PI3Kγ (Q8WYR1 whole entry partner): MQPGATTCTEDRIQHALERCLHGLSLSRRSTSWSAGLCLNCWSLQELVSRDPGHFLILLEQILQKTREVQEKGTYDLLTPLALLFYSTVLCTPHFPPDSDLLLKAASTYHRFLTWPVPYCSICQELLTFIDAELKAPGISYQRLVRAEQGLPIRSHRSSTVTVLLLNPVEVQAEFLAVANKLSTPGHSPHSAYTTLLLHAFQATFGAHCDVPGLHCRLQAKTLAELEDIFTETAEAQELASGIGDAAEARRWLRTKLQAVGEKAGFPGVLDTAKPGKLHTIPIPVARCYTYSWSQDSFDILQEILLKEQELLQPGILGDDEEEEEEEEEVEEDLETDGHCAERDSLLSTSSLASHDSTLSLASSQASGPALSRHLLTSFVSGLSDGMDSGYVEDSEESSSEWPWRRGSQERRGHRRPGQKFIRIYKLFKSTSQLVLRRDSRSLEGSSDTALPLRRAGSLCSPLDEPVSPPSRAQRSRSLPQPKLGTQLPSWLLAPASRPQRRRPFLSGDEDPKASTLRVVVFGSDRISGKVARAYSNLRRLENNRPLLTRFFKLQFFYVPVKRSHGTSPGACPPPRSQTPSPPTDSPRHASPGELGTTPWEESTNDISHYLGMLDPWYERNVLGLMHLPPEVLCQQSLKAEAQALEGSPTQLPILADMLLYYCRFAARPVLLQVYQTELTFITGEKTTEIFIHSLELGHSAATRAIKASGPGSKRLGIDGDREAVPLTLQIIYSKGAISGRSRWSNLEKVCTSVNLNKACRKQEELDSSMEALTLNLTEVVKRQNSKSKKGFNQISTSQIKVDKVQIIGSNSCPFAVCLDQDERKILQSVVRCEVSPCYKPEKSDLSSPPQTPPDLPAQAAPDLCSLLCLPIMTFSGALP
Procedure, shortened: as §2

Sequence of PI3Kα (P42336 whole entry, the tested form may be a part): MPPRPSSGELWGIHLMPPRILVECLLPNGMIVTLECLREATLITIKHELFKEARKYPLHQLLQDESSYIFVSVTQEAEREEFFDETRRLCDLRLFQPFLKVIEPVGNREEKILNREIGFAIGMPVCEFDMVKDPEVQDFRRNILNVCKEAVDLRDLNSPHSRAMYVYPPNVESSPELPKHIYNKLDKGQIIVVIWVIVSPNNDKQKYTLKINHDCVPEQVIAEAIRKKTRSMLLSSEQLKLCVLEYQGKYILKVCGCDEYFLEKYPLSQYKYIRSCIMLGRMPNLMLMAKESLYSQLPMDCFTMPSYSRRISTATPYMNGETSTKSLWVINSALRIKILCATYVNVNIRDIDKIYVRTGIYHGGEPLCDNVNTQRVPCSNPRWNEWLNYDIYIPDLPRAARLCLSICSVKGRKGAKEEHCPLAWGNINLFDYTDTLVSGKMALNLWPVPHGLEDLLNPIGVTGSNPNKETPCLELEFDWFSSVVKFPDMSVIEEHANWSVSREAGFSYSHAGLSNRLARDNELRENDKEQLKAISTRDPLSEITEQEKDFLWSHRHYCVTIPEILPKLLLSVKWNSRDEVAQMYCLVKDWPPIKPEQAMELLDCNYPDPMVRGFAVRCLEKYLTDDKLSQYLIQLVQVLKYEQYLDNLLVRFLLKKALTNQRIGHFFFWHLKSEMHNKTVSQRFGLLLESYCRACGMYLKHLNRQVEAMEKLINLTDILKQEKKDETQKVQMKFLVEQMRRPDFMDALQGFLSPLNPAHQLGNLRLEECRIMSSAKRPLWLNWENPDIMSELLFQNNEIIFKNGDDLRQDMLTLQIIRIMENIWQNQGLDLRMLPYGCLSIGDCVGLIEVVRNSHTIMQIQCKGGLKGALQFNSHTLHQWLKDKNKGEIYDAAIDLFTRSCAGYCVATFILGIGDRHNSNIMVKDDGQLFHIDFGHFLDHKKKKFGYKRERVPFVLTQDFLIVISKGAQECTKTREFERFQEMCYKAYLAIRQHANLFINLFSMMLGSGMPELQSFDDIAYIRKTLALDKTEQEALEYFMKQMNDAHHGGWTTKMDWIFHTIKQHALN
Sequence of PI3Kα (P27986 whole entry partner, the tested form may be a part): as the sequence (P27986 whole entry partner, the tested form may be a part) above

Structure (SMILES)	IC50 ([1]; bound given in uM)	IC50 [2]	IC50 ([3]; bound given in uM)	IC50 ([4]; bound given in uM)	IC50 ([1]; bound given in nM)	IC50 ([3]; bound given in nM)	IC50 ([4]; bound given in nM)
COC[C@@H](Nc1ncnc(N)c1C#Cc1ccc(F)cn1)c1nc2cccc(Cl)c2c(=O)n1-c1cc(F)cc(F)c1 [146b]	> 1 µM	< 100 nM	> 1 µM	> 1 µM	–	–	–
C[C@H](Nc1ncnc(N)c1C#Cc1ccc(F)cn1)c1nc2c(F)ccc(F)c2c(=O)n1-c1cc(F)cc(F)c1 [Compound 1a, (S)-2-(1-((6-amino-5-((5-fluoropyridin-2-yl)ethynyl)pyrimidin-4-yl)amino)ethyl)-3-(3,5-difluorophenyl)-5,8-difluoroquinazolin-4(3H)-one]	> 1 µM	< 100 nM	> 1 µM	> 1 µM	–	–	–
C[C@H](Nc1ncnc(N)c1C#Cc1ccc(F)cn1)c1nc2c(F)cccc2c(=O)n1-c1cc(F)cc(F)c1 [Compound 2a, (S)-2-(1-((6-amino-5-((5-fluoropyridin-2-yl)ethynyl)pyrimidin-4-yl)amino)ethyl)-3-(3,5-difluorophenyl)-8-fluoroquinazolin-4(3H)-one]	> 1 µM	< 100 nM	> 1 µM	> 1 µM	–	–	–
C[C@H](Nc1ncnc(N)c1C#Cc1ccc(F)cn1)c1nc2c(Cl)cccc2c(=O)n1-c1ccccc1 [Compound 5a, (S)-2-(1-(6-amino-5-((5-fluoropyridin-2-yl)ethynyl)pyrimidin-4-ylamino)ethyl)-8-chloro-3-phenylquinazolin-4(3H)-one]	> 1 µM	< 100 nM	> 1 µM	> 1 µM	–	–	–
C[C@H](Nc1ncnc(N)c1C#C[C@@H](C)O)c1nc2cccc(Cl)c2c(=O)n1-c1cc(F)cc(F)c1 [Compound 20a, 2-((S)-1-(6-amino-5-((R)-3-hydroxybut-1-ynyl)pyrimidin-4-ylamino)ethyl)-5-chloro-3-(3,5-difluorophenyl)quinazolin-4(3H)-one]	> 1 µM	< 100 nM	> 1 µM	> 1 µM	–	–	–
C[C@H](O)C#Cc1c(N)ncnc1N[C@@H](C)c1nc2cccc(Cl)c2c(=O)n1-c1cc(F)cc(F)c1 [Compound 20b, 2-((S)-1-(6-amino-5-((S)-3-hydroxybut-1-ynyl)pyrimidin-4-ylamino)ethyl)-5-chloro-3-(3,5-difluorophenyl)quinazolin-4(3H)-one]	> 1 µM	< 100 nM	> 1 µM	> 1 µM	–	–	–
C[C@H](Nc1ncnc(N)c1C#CC1CC1)c1nc2cccc(Cl)c2c(=O)n1-c1cc(F)cc(F)c1 [Compound 23a, (S)-2-(1-(6-amino-5-(cyclopropylethynyl)pyrimidin-4-ylamino)ethyl)-5-chloro-3-(3,5-difluorophenyl)quinazolin-4(3H)-one]	> 1 µM	< 100 nM	> 1 µM	> 1 µM	–	–	–
C[C@H](Nc1ncnc(N)c1C#CC1CC1)c1nc2cccc(Cl)c2c(=O)n1-c1ccccc1 [Compound 24a, (S)-2-(1-(6-amino-5-(cyclopropylethynyl)pyrimidin-4-ylamino)ethyl)-5-chloro-3-phenylquinazolin-4(3H)-one]	> 1 µM	< 100 nM	> 1 µM	> 1 µM	–	–	–
C[C@H](Nc1ncnc(N)c1C#Cc1ccc(OC(F)(F)F)cc1)c1nc2cccc(Cl)c2c(=O)n1-c1cc(F)cc(F)c1 [Compound 26a, (S)-2-(1-(6-amino-5-((4-(trifluoromethoxy)phenyl)ethynyl)pyrimidin-4-ylamino)ethyl)-5-chloro-3-(3,5-difluorophenyl)quinazolin-4(3H)-one]	> 1 µM	–	> 1 µM	> 1 µM	–	–	–
C[C@H](Nc1ncnc(N)c1C#CC(C)(C)O)c1nc2cccc(Cl)c2c(=O)n1-c1cc(F)cc(F)c1 [Compound 28a, (S)-2-(1-(6-amino-5-(3-hydroxy-3-methylbut-1-ynyl)pyrimidin-4-ylamino)ethyl)-5-chloro-3-(3,5-difluorophenyl)quinazolin-4(3H)-one]	> 1 µM	< 100 nM	> 1 µM	> 1 µM	–	–	–
Nc1ncnc(N2CCCC[C@H]2c2nc3cccc(Cl)c3c(=O)n2-c2ccccc2)c1C#Cc1ccccn1 [Compound 36a, (S)-2-(1-(6-amino-5-(pyridin-2-ylethynyl)pyrimidin-4-yl)piperidin-2-yl)-5-chloro-3-phenylquinazolin-4(3H)-one]	> 1 µM	–	> 1 µM	> 1 µM	–	–	–

Now from value to compound:

IC50 ([1]; bound given in uM)	IC50 [2]	IC50 ([3]; bound given in uM)	IC50 ([4]; bound given in uM)	IC50 ([1]; bound given in nM)	IC50 ([3]; bound given in nM)	IC50 ([4]; bound given in nM)	Structure (SMILES)
> 1 µM	< 100 nM	> 1 µM	> 1 µM	–	–	–	C[C@H](Nc1ncnc(N)c1C#Cc1ccc(F)cn1)c1nc2cccc(Cl)c2c(=O)n1-c1cc(F)cc(F)c1 (single isomer, unassigned) [Compound 9a]
> 1 µM	< 100 nM	> 1 µM	> 1 µM	–	–	–	COc1cccc(-n2c([C@H](C)Nc3ncnc(N)c3C#Cc3ncccc3F)nc3cccc(Cl)c3c2=O)c1C [81-1a]
> 1 µM	< 100 nM	> 1 µM	> 1 µM	–	–	–	COc1cccc(-n2c([C@H](C)Nc3ncnc(N)c3C#Cc3ncccc3F)nc3cccc(Cl)c3c2=O)c1C [81-2a]
> 1 µM	< 100 nM	> 1 µM	> 1 µM	–	–	–	C[C@H](Nc1ncnc(N)c1C#Cc1ccc(F)cn1)c1nc2cccc(F)c2c(=O)n1-c1cc(F)cc(F)c1 [Compound 7a, (S)-2-(1-(6-amino-5-((5-fluoropyridin-2-yl)ethynyl)pyrimidin-4-ylamino)ethyl)-3-(3,5-difluorophenyl)-5-fluoroquinazolin-4(3H)-one]
> 1 µM	< 100 nM	> 1 µM	> 1 µM	–	–	–	C[C@H](Nc1ncnc(N)c1C#Cc1ccc(F)cn1)c1nc2cccc(F)c2c(=O)n1-c1ccccc1 [Compound 8a, (S)-2-(1-(6-amino-5-((5-fluoropyridin-2-yl)ethynyl)pyrimidin-4-ylamino)ethyl)-5-fluoro-3-phenylquinazolin-4(3H)-one]
> 1 µM	–	> 1 µM	> 1 µM	–	–	–	C[C@H](Nc1ncnc(N)c1C#Cc1cccnn1)c1nc2cccc(Cl)c2c(=O)n1-c1ccccc1 [Compound 14a, (S)-2-(1-(6-amino-5-(pyridazin-3-ylethynyl)pyrimidin-4-ylamino)ethyl)-5-chloro-3-phenylquinazolin-4(3H)-one]
–	< 100 nM	–	–	< 0.1 µM	< 0.1 µM	< 0.1 µM	C[C@H](Nc1ncnc(N)c1C#Cc1cnc(N)cc1C(F)(F)F)c1nc2cccc(Cl)c2c(=O)n1-c1ccccc1 [Compound 18a, (S)-2-(1-(6-amino-5-((6-amino-4-(trifluoromethyl)pyridin-3-yl)ethynyl)pyrimidin-4-ylamino)ethyl)-5-chloro-3-phenylquinazolin-4(3H)-one]
> 1 µM	< 100 nM	> 1 µM	> 1 µM	–	–	–	C[C@H](Nc1ncnc(N)c1C#C[C@@H](C)O)c1nc2cccc(Cl)c2c(=O)n1-c1ccccc1 [Compound 19a, 2-((S)-1-(6-amino-5-((R)-3-hydroxybut-1-ynyl)pyrimidin-4-ylamino)ethyl)-5-chloro-3-phenylquinazolin-4(3H)-one]
> 1 µM	< 100 nM	> 1 µM	> 1 µM	–	–	–	C[C@H](O)C#Cc1c(N)ncnc1N[C@@H](C)c1nc2cccc(Cl)c2c(=O)n1-c1ccccc1 [Compound 19b, 2-((S)-1-(6-amino-5-((S)-3-hydroxybut-1-ynyl)pyrimidin-4-ylamino)ethyl)-5-chloro-3-phenylquinazolin-4(3H)-one]
> 1 µM	< 100 nM	> 1 µM	> 1 µM	–	–	–	C[C@H](Nc1ncnc(N)c1C#CC(C)(C)O)c1nc2cccc(Cl)c2c(=O)n1-c1ccccc1 [Compound 29a, (S)-2-(1-(6-amino-5-(3-hydroxy-3-methylbut-1-ynyl)pyrimidin-4-ylamino)ethyl)-5-chloro-3-phenylquinazolin-4(3H)-one]
–	< 100 nM	–	–	< 0.1 µM	< 0.1 µM	< 0.1 µM	C[C@H](Nc1ncnc(N)c1C#Cc1cccc(N)n1)c1nc2cccc(Cl)c2c(=O)n1-c1ccccc1 [Compound 31a, (S)-2-(1-(6-amino-5-((6-aminopyridin-2-yl)ethynyl)pyrimidin-4-ylamino)ethyl)-5-chloro-3-phenylquinazolin-4(3H)-one]
> 1 µM	–	> 1 µM	> 1 µM	–	–	–	C[C@H](Nc1ncnc(N)c1C#Cc1ccc(F)cn1)c1nc2cccc(Cl)c2c(=O)n1-c1cccc(S(C)(=O)=O)c1 [Compound 58a, (S)-2-(1-((6-amino-5-((5-fluoropyridin-2-yl)ethynyl)pyrimidin-4-yl)amino)ethyl)-5-chloro-3-(3-(methylsulfonyl)phenyl)quinazolin-4(3H)-one]
> 1 µM	–	> 1 µM	> 1 µM	–	–	–	C[C@H](Nc1ncnc(N)c1C#Cc1ccc(F)cn1)c1nc2cccc(Cl)c2c(=O)n1-c1cccc(C(C)(C)C)c1 [Compound 59a, (S)-2-(1-((6-amino-5-((5-fluoropyridin-2-yl)ethynyl)pyrimidin-4-yl)amino)ethyl)-3-(3-(tert-butyl)phenyl)-5-chloroquinazolin-4(3H)-one]
> 1 µM	–	> 1 µM	> 1 µM	–	–	–	CC(C)OC(=O)c1ccc(C#Cc2c(N)ncnc2N[C@@H](C)c2nc3cccc(Cl)c3c(=O)n2-c2ccccc2)nc1 [Compound 137a, (S)-isopropyl 6-((4-amino-6-((1-(5-chloro-4-oxo-3-phenyl-3,4-dihydroquinazolin-2-yl)ethyl)amino)pyrimidin-5-yl)ethynyl)nicotinate]
